According to ChEMBL document CHEMBL2034965, “The synthesis of 2,5-bis(4-amidinophenyl)thiophene derivatives providing submicromolar-range inhibition of the botulinum neurotoxin serotype A metalloprotease” (Eur J Med Chem, 2012):

How the values were obtained:
[1] = molecular target: Botulinum neurotoxin type A (Clostridium botulinum) (UniProt P0DPI0); assay: Inhibition of clostridium botulinum Botulinum neurotoxin type A light chain at 20 uM by RP-HPLC analysis
[2] = molecular target: Botulinum neurotoxin type A (Clostridium botulinum, UniProt P0DPI0); assay: Competitive inhibition of clostridium botulinum Botulinum neurotoxin type A light chain by RP-HPLC analysis
Chain of Botulinum neurotoxin type A (P0DPI0 2-448 limits assumed): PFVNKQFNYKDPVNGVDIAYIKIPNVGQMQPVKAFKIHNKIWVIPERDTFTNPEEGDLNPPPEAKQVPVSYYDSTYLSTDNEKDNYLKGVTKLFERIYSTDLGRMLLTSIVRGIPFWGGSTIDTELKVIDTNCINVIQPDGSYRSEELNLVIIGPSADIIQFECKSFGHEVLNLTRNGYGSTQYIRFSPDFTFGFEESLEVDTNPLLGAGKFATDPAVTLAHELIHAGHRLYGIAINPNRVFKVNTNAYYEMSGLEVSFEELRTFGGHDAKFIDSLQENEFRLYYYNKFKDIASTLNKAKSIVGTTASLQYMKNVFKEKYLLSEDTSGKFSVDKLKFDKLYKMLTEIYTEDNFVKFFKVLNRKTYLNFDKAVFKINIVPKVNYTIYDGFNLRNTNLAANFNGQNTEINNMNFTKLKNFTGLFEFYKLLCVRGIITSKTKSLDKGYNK

[3] = molecular target: Botulinum neurotoxin type A (Clostridium botulinum) (UniProt P0DPI0); assay: Ratio of Ki for NSC 300510 to compound Ki for clostridium botulinum Botulinum neurotoxin type A light chain by RP-HPLC analysis

Chain of Botulinum neurotoxin type A (Clostridium botulinum) (P0DPI0 2-448 limits assumed): as above

What does the source list for N=C(N)c1ccc(-c2ccc(-c3ccc(C(=N)N)cc3)s2)cc1?
inhibition [1]: 78%; Ki [2]: 10900 nM

For Clc1ccc2c(NCCCCNCc3ccc(-c4ccc(-c5ccc(CNCCCCNc6ccnc7cc(Cl)ccc67)cc5)s4)cc3)ccnc2c1, which Ki [2] is on record?
The Ki was 535 nM.

O=C(NCCCNc1ccnc2cc(Cl)ccc12)c1cc(NC(=O)c2ccc(C(=O)Nc3cc(C(=O)NCCCNc4ccnc5cc(Cl)ccc45)cc(C4=NCCN4)c3)cc2)cc(C2=NCCN2)c1 was tested. Which Ratio Ki [3] did it give?
Its Ratio Ki is 15.

How did the Ki [2] turn out when Clc1ccc2c(NCCCCCNCc3ccc(-c4ccc(-c5ccc(CNCCCCCNc6ccnc7cc(Cl)ccc67)cc5)s4)cc3)ccnc2c1 was run?
Its Ki is 889 nM.

How did the Ki [2] turn out when Clc1ccc2c(NCCNCc3ccc(-c4ccc(-c5ccc(CNCCNc6ccnc7cc(Cl)ccc67)cc5)s4)cc3)ccnc2c1 was run?
The Ki was 882 nM.

Clc1ccc2c(NCCCNCc3ccc(-c4ccc(-c5ccc(CNCCCNc6ccnc7cc(Cl)ccc67)cc5)s4)cc3)ccnc2c1 was tested. Which Ratio Ki [3] did it give?
Its Ratio Ki is 36.
